Experimental data: patent publication US20130071854A1, “METHODS FOR THE IDENTIFICATION AND CHARACTERIZATION OF HDAC INTERACTING COMPOUNDS” (priority 2009, published 2013)
Like-named read-outs stand apart in the source and are kept apart here.

Tests used:
MIER2 = test: Chemoproteomic binding profiling, K562 cell extract, SAHA/ITF2357 probe matrix (Kd app), ELSA (ELM-SANT) domain protein; parameters: species or system human; conditions: ELSA (ELM-SANT) domain proteins
EHMT2 = test: Chemoproteomic binding profiling, K562 cell extract, SAHA/ITF2357 probe matrix (Kd app), ELSA (ELM-SANT) domain proteins group; parameters: species or system human; conditions: protein EHMT2
MIER1 = test: Chemoproteomic binding profiling, K562 cell extract, SAHA/ITF2357 probe matrix (Kd app), ELSA (ELM-SANT) domain protein; parameters: species or system human; conditions: ELSA (ELM-SANT) domain proteins
RERE = test: as above; parameters: species or system human; conditions: protein RERE; ELSA (ELM-SANT) domain proteins
[1] = biological target: T1, non-HDAC targets (e.g. BZW2, ISOC2, aldehyde dehydrogenases) (Homo sapiens, UniProt Q96AB3); test: Chemoproteomic binding profiling, K562 cell extract, SAHA/ITF2357 probe matrix (Kd app); conditions: protein ISOC2; selected HDACi off-targets
T1 construct: endogenous in cells; host or cells: K562 whole cell extract
T1 sequence (Q96AB3 1-205): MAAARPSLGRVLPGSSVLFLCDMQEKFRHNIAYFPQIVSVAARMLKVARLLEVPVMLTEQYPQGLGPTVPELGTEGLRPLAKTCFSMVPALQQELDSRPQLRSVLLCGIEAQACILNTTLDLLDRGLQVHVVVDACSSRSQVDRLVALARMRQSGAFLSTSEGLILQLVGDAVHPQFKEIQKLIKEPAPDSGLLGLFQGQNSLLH

[2] = biological target: T2, non-HDAC targets (e.g. BZW2, ISOC2, aldehyde dehydrogenases) (Homo sapiens, UniProt Q08209); test: as above; conditions: protein PPP3CA; selected HDACi off-targets
T2 construct: Kd^app PPP3CA; other: protein PPP3CA; selected HDACi off-targets

[3] = biological target: T3, non-HDAC targets (e.g. BZW2, ISOC2, aldehyde dehydrogenases) (Homo sapiens, UniProt Q9Y6E2); test: as above; conditions: protein BZW2; selected HDACi off-targets
T3 construct: endogenous in cells; host or cells: K562 whole cell extract
T3 sequence (Q9Y6E2 1-419): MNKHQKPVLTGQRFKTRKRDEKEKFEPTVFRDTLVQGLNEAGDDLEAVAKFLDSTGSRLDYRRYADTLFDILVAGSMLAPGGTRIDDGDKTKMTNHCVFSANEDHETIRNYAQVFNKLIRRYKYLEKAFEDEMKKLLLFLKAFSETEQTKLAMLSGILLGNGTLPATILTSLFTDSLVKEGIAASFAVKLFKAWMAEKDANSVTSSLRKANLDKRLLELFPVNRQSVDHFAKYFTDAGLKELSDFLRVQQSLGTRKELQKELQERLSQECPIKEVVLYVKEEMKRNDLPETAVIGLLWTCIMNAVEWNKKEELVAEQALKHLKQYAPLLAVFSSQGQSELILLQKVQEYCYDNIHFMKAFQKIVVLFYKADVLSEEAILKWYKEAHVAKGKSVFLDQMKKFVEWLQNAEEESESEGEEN

[4] = biological target: T4, non-HDAC targets (e.g. BZW2, ISOC2, aldehyde dehydrogenases) (Homo sapiens, UniProt O94788); test: as above; conditions: protein ALDH1A2; selected HDACi off-targets
T4 construct: endogenous in cells; host or cells: K562 whole cell extract
T4 sequence (O94788 1-518): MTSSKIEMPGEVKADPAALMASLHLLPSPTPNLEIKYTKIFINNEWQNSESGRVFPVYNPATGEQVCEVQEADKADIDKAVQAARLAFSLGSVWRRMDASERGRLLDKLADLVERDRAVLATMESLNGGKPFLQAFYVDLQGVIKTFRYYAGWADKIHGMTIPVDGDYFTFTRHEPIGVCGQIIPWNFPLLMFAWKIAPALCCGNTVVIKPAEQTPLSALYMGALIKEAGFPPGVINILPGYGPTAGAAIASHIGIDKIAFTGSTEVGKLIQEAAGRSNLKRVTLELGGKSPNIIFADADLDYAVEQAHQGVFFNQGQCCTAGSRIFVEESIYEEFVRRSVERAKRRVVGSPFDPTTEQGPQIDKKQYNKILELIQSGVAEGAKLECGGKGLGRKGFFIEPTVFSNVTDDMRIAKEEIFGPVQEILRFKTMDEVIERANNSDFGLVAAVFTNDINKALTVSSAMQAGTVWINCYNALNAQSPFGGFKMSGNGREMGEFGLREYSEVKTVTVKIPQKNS

[5] = biological target: T5, non-HDAC targets (e.g. BZW2, ISOC2, aldehyde dehydrogenases) (Homo sapiens, UniProt P16152); test: as above; conditions: protein CBR1; selected HDACi off-targets
T5 construct: Kd^app CBR1; other: protein CBR1; selected HDACi off-targets
T5 sequence (P16152 1-277): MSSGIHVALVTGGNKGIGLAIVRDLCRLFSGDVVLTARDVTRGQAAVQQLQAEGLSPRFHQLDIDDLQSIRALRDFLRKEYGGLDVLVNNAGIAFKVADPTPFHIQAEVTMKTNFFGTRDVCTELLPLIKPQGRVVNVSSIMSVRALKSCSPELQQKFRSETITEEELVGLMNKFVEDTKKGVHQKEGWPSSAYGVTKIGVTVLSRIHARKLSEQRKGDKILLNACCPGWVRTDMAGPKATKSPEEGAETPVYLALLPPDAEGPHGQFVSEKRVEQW

[6] = system: T6, MiDAC complex (HDAC1/2, DNTTIP1, CDYL, MIDEAS); test: as above; parameters: species or system human
T6 construct: Kd^app MIDEAS; other: protein MIDEAS; MiDAC complex; Kd^app DNTTIP1; other: protein DNTTIP1

MIER3 = test: Chemoproteomic binding profiling, K562 cell extract, SAHA/ITF2357 probe matrix (Kd app), ELSA (ELM-SANT) domain protein; parameters: species or system human; conditions: ELSA (ELM-SANT) domain proteins
NuRD complex = test: Chemoproteomic binding profiling, K562 cell extract, SAHA/ITF2357 probe matrix (Kd app); parameters: species or system human
Sin3 complex = test: as above; parameters: species or system human
CoREST complex = test: as above; parameters: species or system human
HDAC10 = biological target: T7, HDAC10 (Homo sapiens, UniProt Q969S8); test: as above; conditions: protein HDAC10; class II HDAC; read-out: Kd^app HDAC10
T7 construct: used to probe endogenous HDACs in K562 whole cell extracts; endogenous in cells
T7 sequence (Q969S8 1-669): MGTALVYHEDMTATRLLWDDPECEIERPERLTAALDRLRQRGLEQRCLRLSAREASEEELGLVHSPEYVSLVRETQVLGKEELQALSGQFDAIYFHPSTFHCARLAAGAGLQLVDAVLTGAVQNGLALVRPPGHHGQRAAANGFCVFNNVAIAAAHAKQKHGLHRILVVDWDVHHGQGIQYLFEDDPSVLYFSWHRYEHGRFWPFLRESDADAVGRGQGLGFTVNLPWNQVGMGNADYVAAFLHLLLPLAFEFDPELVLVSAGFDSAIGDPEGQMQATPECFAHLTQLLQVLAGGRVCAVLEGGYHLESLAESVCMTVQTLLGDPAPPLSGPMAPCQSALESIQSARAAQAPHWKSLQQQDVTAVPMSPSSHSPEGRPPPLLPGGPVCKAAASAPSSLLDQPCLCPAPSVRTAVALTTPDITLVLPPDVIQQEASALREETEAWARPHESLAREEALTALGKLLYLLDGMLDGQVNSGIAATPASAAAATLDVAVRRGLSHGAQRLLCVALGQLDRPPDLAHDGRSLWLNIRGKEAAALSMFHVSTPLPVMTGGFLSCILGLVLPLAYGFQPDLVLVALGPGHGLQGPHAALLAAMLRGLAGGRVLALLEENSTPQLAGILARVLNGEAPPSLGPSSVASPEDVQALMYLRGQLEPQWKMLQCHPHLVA

[7] = system: acetylated histones H3 and H4; test: Cell-based histone acetylation assay (immunofluorescence, western blotting); parameters: species or system human; conditions: K562 and HeLa cells
acetylated tubulin = test: Cell-based tubulin acetylation assay (immunofluorescence, western blotting); parameters: species or system human; conditions: K562 and HeLa cells; immunofluorescence and western blotting
[8] = protein CHD4, NuRD complex, read-out: Kd^app CHD4
[9] = protein GATAD2A, NuRD complex, read-out: Kd^app GATAD2A
[10] = protein GATAD2B, NuRD complex, read-out: Kd^app GATAD2B
[11] = protein MBD2, NuRD complex, read-out: Kd^app MBD2
[12] = protein MBD3, NuRD complex, read-out: Kd^app MBD3
[13] = protein MTA1, NuRD complex, read-out: Kd^app MTA1
[14] = protein MTA2, NuRD complex, read-out: Kd^app MTA2
[15] = protein MTA3, NuRD complex, read-out: Kd^app MTA3
[16] = protein GSE1, CoREST complex, read-out: Kd^app GSE1
[17] = protein HMG20A, CoREST complex, read-out: Kd^app HMG20A
[18] = protein HMG20B, CoREST complex, read-out: Kd^app HMG20B
[19] = protein PHF21A, CoREST complex, read-out: Kd^app PHF21A
[20] = protein RCOR1, CoREST complex, read-out: Kd^app RCOR1
[21] = protein RCOR2, CoREST complex, read-out: Kd^app RCOR2
[22] = protein RCOR3, CoREST complex, read-out: Kd^app RCOR3
[23] = protein ZMYM2, CoREST complex, read-out: Kd^app ZMYM2
[24] = protein ZMYM3, CoREST complex, read-out: Kd^app ZMYM3

Row | Compound | Kd (MIER2) | Kd (EHMT2) | Kd (MIER1) | Kd (RERE) | Kd [1] | Kd [2] | Kd [3] | Kd [4] | Kd [5] | Kd (MIER3) | Kd (NuRD complex; [8]) | Kd (NuRD complex; [9]) | Kd (NuRD complex; [10]) | Kd (NuRD complex; [11]) | Kd (NuRD complex; [12]) | Kd (NuRD complex; [13]) | Kd (NuRD complex; [14]) | Kd (NuRD complex; [15]) | Kd (CoREST complex; [16]) | Kd (CoREST complex; [17]) | also measured
1 | Cn1cc(C(=O)Cc2ccccc2)cc1C=CC(=O)NO [MC-1293] | > 10 µM | > 10 µM | > 10 µM | > 10 µM | 5 µM | 40 µM | 4 µM | > 10 µM | 19 µM | 209 µM | > 10 µM | > 10 µM | > 10 µM | > 10 µM | > 10 µM | > 10 µM | > 10 µM | > 10 µM | > 10 µM | > 10 µM | Kd ([6]; protein DNTTIP1, read-out: Kd^app DNTTIP1): > 10 µM; Kd ([6]; protein MIDEAS, read-out: Kd^app MIDEAS): > 10 µM; Kd (Sin3 complex; protein SAP30, read-out: Kd^app SAP30): 164 µM; Kd (Sin3 complex; protein SIN3A, read-out: Kd^app SIN3A): > 10 µM; Kd (Sin3 complex; protein SIN3B, read-out: Kd^app SIN3B): > 10 µM; Kd (CoREST complex; [18]): > 10 µM; Kd (CoREST complex; [19]): > 10 µM; Kd (CoREST complex; [20]): > 10 µM; Kd (CoREST complex; [21]): > 10 µM; Kd (CoREST complex; [22]): > 10 µM; Kd (CoREST complex; [23]): > 10 µM; Kd (CoREST complex; [24]): > 10 µM
2 | Nc1ccccc1NC(=O)c1ccc(CNc2nccc(-c3cccnc3)n2)cc1 [Mocetinostat] | 99 µM | > 271 µM | 73 µM | > 271 µM | > 271 µM | > 271 µM | > 271 µM | 230 µM | 109 µM | 34 µM |  |  |  |  |  |  |  |  |  |  | Kd (HDAC10): > 271 µM; Kd (NuRD complex; read-out: Kd^app CHD4): 170 µM; Kd (NuRD complex; read-out: Kd^app GATAD2A): 183 µM; Kd (NuRD complex; read-out: Kd^app GATAD2B): 106 µM; Kd (NuRD complex; read-out: Kd^app MBD2): 217 µM; Kd (NuRD complex; read-out: Kd^app MBD3): 119 µM; Kd (NuRD complex; read-out: Kd^app MTA1): 136 µM; Kd (NuRD complex; read-out: Kd^app MTA3): 87 µM; Kd (CoREST complex; read-out: Kd^app GSE1): 50 µM; Kd (CoREST complex; read-out: Kd^app HMG20A): 53 µM; Kd (CoREST complex; read-out: Kd^app HMG20B): 62 µM; Kd (CoREST complex; read-out: Kd^app PHF21A): 189 µM; Kd (CoREST complex; read-out: Kd^app RCOR1): 48 µM; Kd (CoREST complex; read-out: Kd^app RCOR2): 103 µM; Kd (CoREST complex; read-out: Kd^app RCOR3): 60 µM; Kd (CoREST complex; read-out: Kd^app ZMYM2): 124 µM; Kd (CoREST complex; read-out: Kd^app ZMYM3): 255 µM
3 | CN(C)Cc1c(C(=O)NCCOc2ccc(C(=O)NO)cc2)oc2ccccc12 [PCI-24781] |  |  | 0.06 µM | 0.21 µM | > 10 µM | > 10 µM | > 10 µM | > 10 µM | > 10 µM | 0.02 µM | 0.16 µM | 0.06 µM | 0.07 µM | 0.17 µM | 0.04 µM | 0.05 µM | 0.06 µM | 0.05 µM | 0.02 µM | 0.02 µM | histone acetylation (in words) [7]: increased steady state acetylation of tubulin and histones; tubulin acetylation (in words) (acetylated tubulin): increased steady state acetylation of tubulin and histones; Kd (CoREST complex; [18]): 0.03 µM; Kd (CoREST complex; [19]): 0.05 µM; Kd (CoREST complex; [20]): 0.02 µM; Kd (CoREST complex; [21]): 0.02 µM; Kd (CoREST complex; [22]): 0.02 µM; Kd (CoREST complex; [23]): 0.02 µM; Kd (CoREST complex; [24]): 0.04 µM
